Results reported in patent US7517874B2 (priority 2007, dated 2009).
Where two headings read alike, the source gives them in different places.

Assays:
[1] = target: human CB1 receptor (hCB1) (Homo sapiens, UniProt P21554); assay: cell-based; assay type: cell-based
In short: (§1)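 Readout: LANCE TR-FRET cAMP, back-calculated from a concurrent standard curve and scaled between forskolin-only and forskolin + 1 μM CP55,940 wells. EC50 and intrinsic activity came from four-parameter fits.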

rat CB2 receptor (rCB2) = target: T1, rat CB2 receptor (rCB2) (Rattus norvegicus, UniProt Q9QZN9); assay: cell-based; assay type: cell-based; settings: for +/− RCB2: agonist or inverse agonist at rCB2
T1 sequence (Q9QZN9 1-360): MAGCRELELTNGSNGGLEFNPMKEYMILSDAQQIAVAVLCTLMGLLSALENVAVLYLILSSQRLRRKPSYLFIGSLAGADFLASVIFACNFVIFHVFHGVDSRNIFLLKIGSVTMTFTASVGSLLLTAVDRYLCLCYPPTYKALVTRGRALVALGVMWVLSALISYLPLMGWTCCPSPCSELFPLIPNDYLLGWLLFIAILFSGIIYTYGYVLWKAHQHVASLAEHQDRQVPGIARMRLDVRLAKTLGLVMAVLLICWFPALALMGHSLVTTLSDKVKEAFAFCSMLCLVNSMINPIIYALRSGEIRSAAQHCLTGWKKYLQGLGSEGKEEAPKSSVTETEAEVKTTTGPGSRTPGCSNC
In short: as §1

Sequence of human CB1 receptor (hCB1) (P21554 whole entry): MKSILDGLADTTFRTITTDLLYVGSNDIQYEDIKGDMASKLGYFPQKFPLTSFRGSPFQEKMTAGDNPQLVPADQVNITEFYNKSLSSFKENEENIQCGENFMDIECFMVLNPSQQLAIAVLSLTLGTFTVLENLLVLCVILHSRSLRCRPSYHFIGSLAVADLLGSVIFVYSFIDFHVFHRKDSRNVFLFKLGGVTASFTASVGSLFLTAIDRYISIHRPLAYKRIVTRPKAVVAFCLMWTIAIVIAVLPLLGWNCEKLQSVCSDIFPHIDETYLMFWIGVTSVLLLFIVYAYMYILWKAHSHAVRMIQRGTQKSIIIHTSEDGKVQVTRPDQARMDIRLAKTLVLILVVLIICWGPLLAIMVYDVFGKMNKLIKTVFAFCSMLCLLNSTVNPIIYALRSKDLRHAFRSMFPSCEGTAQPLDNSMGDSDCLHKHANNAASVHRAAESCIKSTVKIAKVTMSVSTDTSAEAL

Row | Compound | EC50 [1] [nM] | +/− RCB2 (rat CB2 receptor (rCB2)) | EC50 (rat CB2 receptor (rCB2)) [nM] | EC50 ([1]; groups >100 nM-10 μM and >10 μM, cAMP, CHO-K1 hCB1, read-out: EC50 HCB1) [nM] | EC50 (rat CB2 receptor (rCB2); groups >100 nM-10 μM and >10 μM, cAMP, CHO-K1 rCB2, read-out: EC50 RCB2) [nM]
1 | CNC(=O)[C@@H](NC(=O)c1nc(-c2cc(F)c(F)c(F)c2)n2c1CN(C)CCC2)C(C)(C)C [Compound 375, (S)-N-(3,3-dimethyl-1-(methylamino)-1-oxobutan-2-yl)-8-methyl-3-(3,4,5-trifluorophenyl)-6,7,8,9-tetrahydro-5H-imidazo[1,5-a][1,4]diazepine-1-carboxamide] | > 10000 | + |  |  | 
2 | C/C=C/c1nc(C(=O)N[C@H](C(=O)NC)C(C)(C)C)c2n1CCCN(C)C2 [Compound 376, (S,E)-N-(3,3-dimethyl-1-(methylamino)-1-oxobutan-2-yl)-8-methyl-3-(prop-1-enyl)-6,7,8,9-tetrahydro-5H-imidazo[1,5-a][1,4]diazepine-1-carboxamide] | > 10000 | + |  |  | 
3 | CNC(=O)[C@@H](NC(=O)c1nc(C=C(C)C)n2c1CN(C)CCC2)C(C)(C)C [Compound 377, (S)-N-(3,3-dimethyl-1-(methylamino)-1-oxobutan-2-yl)-8-methyl-3-(2-methylprop-1-enyl)-6,7,8,9-tetrahydro-5H-imidazo[1,5-a][1,4]diazepine-1-carboxamide] | > 10000 | + |  |  | 
4 | CNC(=O)[C@@H](NC(=O)c1nc(-c2ccc(N3CCOCC3)cc2)n2c1CN(C)CCC2)C(C)(C)C [Compound 378, (S)-N-(3,3-dimethyl-1-(methylamino)-1-oxobutan-2-yl)-8-methyl-3-(4-morpholinophenyl)-6,7,8,9-tetrahydro-5H-imidazo[1,5-a][1,4]diazepine-1-carboxamide] | > 10000 | − |  |  | 
5 | CNC(=O)[C@@H](NC(=O)c1nc(-c2ccc(S(C)(=O)=O)cc2)n2c1CN(C)CCC2)C(C)(C)C [Compound 379, (S)-N-(3,3-dimethyl-1-(methylamino)-1-oxobutan-2-yl)-8-methyl-3-(4-(methylsulfonyl)phenyl)-6,7,8,9-tetrahydro-5H-imidazo[1,5-a][1,4]diazepine-1-carboxamide] | > 10000 |  | > 10000 |  | 
6 | CNC(=O)[C@@H](NC(=O)c1nc(-c2ccc3ccccc3c2)n2c1CN(C)CCC2)C(C)(C)C [Compound 380, (S)-N-(3,3-dimethyl-1-(methylamino)-1-oxobutan-2-yl)-8-methyl-3-(naphthalen-2-yl)-6,7,8,9-tetrahydro-5H-imidazo[1,5-a][1,4]diazepine-1-carboxamide] | > 10000 | − |  |  | 
7 | CNC(=O)[C@@H](NC(=O)c1nc(-c2ccc(N(C)C)cc2)n2c1CN(C)CCC2)C(C)(C)C [Compound 381, (S)-N-(3,3-dimethyl-1-(methylamino)-1-oxobutan-2-yl)-3-(4-(dimethylamino)phenyl)-8-methyl-6,7,8,9-tetrahydro-5H-imidazo[1,5-a][1,4]diazepine-1-carboxamide] | > 10000 | − |  |  | 
8 | CNC(=O)[C@@H](NC(=O)c1nc(-c2cccc(N(C)C)c2)n2c1CN(C)CCC2)C(C)(C)C [Compound 382, (S)-N-(3,3-dimethyl-1-(methylamino)-1-oxobutan-2-yl)-3-(3-(dimethylamino)phenyl)-8-methyl-6,7,8,9-tetrahydro-5H-imidazo[1,5-a][1,4]diazepine-1-carboxamide] | > 10000 | − |  |  | 
9 | CNC(=O)[C@@H](NC(=O)c1nc(-c2cccc(-c3ccccc3)c2)n2c1CN(C)CCC2)C(C)(C)C [Compound 383, (S)-3-(biphenyl-3-yl)-N-(3,3-dimethyl-1-(methylamino)-1-oxobutan-2-yl)-8-methyl-6,7,8,9-tetrahydro-5H-imidazo[1,5-a][1,4]diazepine-1-carboxamide] | > 10000 | − |  |  | 
10 | CNC(=O)[C@@H](NC(=O)c1nc(-c2cc(F)cc(OC)c2)n2c1CN(C)CCC2)C(C)(C)C [Compound 384, (S)-N-(3,3-dimethyl-1-(methylamino)-1-oxobutan-2-yl)-3-(3-fluoro-5-methoxyphenyl)-8-methyl-6,7,8,9-tetrahydro-5H-imidazo[1,5-a][1,4]diazepine-1-carboxamide] | > 10000 | − |  |  | 
11 | CNC(=O)[C@@H](NC(=O)c1nc(-c2cccc(S(=O)(=O)N3CCCC3)c2)n2c1CN(C)CCC2)C(C)(C)C [Compound 385, (S)-N-(3,3-dimethyl-1-(methylamino)-1-oxobutan-2-yl)-8-methyl-3-(3-(pyrrolidin-1-ylsulfonyl)phenyl)-6,7,8,9-tetrahydro-5H-imidazo[1,5-a][1,4]diazepine-1-carboxamide] | > 10000 |  | > 10000 |  | 
12 | CNC(=O)[C@@H](NC(=O)c1nc(-c2cccc(C(=O)N3CCOCC3)c2)n2c1CN(C)CCC2)C(C)(C)C [Compound 386, (S)-N-(3,3-dimethyl-1-(methylamino)-1-oxobutan-2-yl)-8-methyl-3-(3-(morpholine-4-carbonyl)phenyl)-6,7,8,9-tetrahydro-5H-imidazo[1,5-a][1,4]diazepine-1-carboxamide] | > 10000 |  | > 10000 |  | 
13 | CNC(=O)[C@@H](NC(=O)c1nc(-c2ccc(C(=O)OC)cc2F)n2c1CN(C)CCC2)C(C)(C)C [Compound 387, (S)-methyl 4-(1-(3,3-dimethyl-1-(methylamino)-1-oxobutan-2-ylcarbamoyl)-8-methyl-6,7,8,9-tetrahydro-5H-imidazo[1,5-a][1,4]diazepin-3-yl)-3-fluorobenzoate] | > 10000 |  | > 10000 |  | 
14 | CNC(=O)[C@@H](NC(=O)c1nc(C2=CCN(C(=O)OC(C)(C)C)CC2)n2c1CN(C)CCC2)C(C)(C)C [Compound 388, (S)-tert-butyl 4-(1-(3,3-dimethyl-1-(methylamino)-1-oxobutan-2-ylcarbamoyl)-8-methyl-6,7,8,9-tetrahydro-5H-imidazo[1,5-a][1,4]diazepin-3-yl)-5,6-dihydropyridine-1(2H)-carboxylate] | > 10000 |  | > 10000 |  | 
15 | CNC(=O)[C@@H](NC(=O)c1nc(-c2ccc(F)c(C(=O)N3CCOCC3)c2)n2c1CN(C)CCC2)C(C)(C)C [Compound 389, (S)-N-(3,3-dimethyl-1-(methylamino)-1-oxobutan-2-yl)-3-(4-fluoro-3-(morpholine-4-carbonyl)phenyl)-8-methyl-6,7,8,9-tetrahydro-5H-imidazo[1,5-a][1,4]diazepine-1-carboxamide] | > 10000 |  | > 10000 |  | 
16 | CNC(=O)[C@@H](NC(=O)c1nc(-c2ccc(-n3cccn3)cc2)n2c1CN(C)CCC2)C(C)(C)C [Compound 390, (S)-3-(4-(1H-pyrazol-1-yl)phenyl)-N-(3,3-dimethyl-1-(methylamino)-1-oxobutan-2-yl)-8-methyl-6,7,8,9-tetrahydro-5H-imidazo[1,5-a][1,4]diazepine-1-carboxamide] | > 10000 | − |  |  | 
17 | CNC(=O)c1cccc(-c2nc(C(=O)N[C@H](C(=O)NC)C(C)(C)C)c3n2CCCN(C)C3)c1 [Compound 391, (S)-N-(3,3-dimethyl-1-(methylamino)-1-oxobutan-2-yl)-8-methyl-3-(3-(methylcarbamoyl)phenyl)-6,7,8,9-tetrahydro-5H-imidazo[1,5-a][1,4]diazepine-1-carboxamide] | > 10000 |  | > 10000 |  | 
18 | CNC(=O)[C@@H](NC(=O)c1nc(-c2ccc(C(=O)N3CCN(C)CC3)cc2)n2c1CN(C)CCC2)C(C)(C)C [Compound 392, (S)-N-(3,3-dimethyl-1-(methylamino)-1-oxobutan-2-yl)-8-methyl-3-(4-(4-methylpiperazin-1-carbonyl)phenyl)-6,7,8,9-tetrahydro-5H-imidazo[1,5-a][1,4]diazepine-1-carboxamide] |  |  |  | > 10000 | > 10000
19 | CNC(=O)[C@@H](NC(=O)c1nc(-c2ccc(F)c(OC)c2)n2c1CN(C)CCC2)C(C)(C)C [Compound 393, (S)-N-(3,3-dimethyl-1-(methylamino)-1-oxobutan-2-yl)-3-(4-fluoro-3-methoxyphenyl)-8-methyl-6,7,8,9-tetrahydro-5H-imidazo[1,5-a][1,4]diazepine-1-carboxamide] | > 10000 | + |  |  | 
20 | CNC(=O)[C@@H](NC(=O)c1nc(-c2ccc(C(=O)N(C)C)cc2)n2c1CN(C)CCC2)C(C)(C)C [Compound 394, (S)-N-(3,3-dimethyl-1-(methylamino)-1-oxobutan-2-yl)-3-(4-(dimethylcarbamoyl)phenyl)-8-methyl-6,7,8,9-tetrahydro-5H-imidazo[1,5-a][1,4]diazepine-1-carboxamide] | > 10000 | − |  |  | 
21 | CNC(=O)[C@@H](NC(=O)c1nc(-c2ccccn2)n2c1CN(C)CCC2)C(C)(C)C [Compound 395, (S)-N-(3,3-dimethyl-1-(methylamino)-1-oxobutan-2-yl)-8-methyl-3-(pyridin-2-yl)-6,7,8,9-tetrahydro-5H-imidazo[1,5-a][1,4]diazepine-1-carboxamide] | > 10000 | + |  |  | 
22 | CNC(=O)[C@@H](NC(=O)c1nc(C2=CCCCC2)n2c1CN(C)CCC2)C(C)(C)C [Compound 396, (S)-3-cyclohexenyl-N-(3,3-dimethyl-1-(methylamino)-1-oxobutan-2-yl)-8-methyl-6,7,8,9-tetrahydro-5H-imidazo[1,5-a][1,4]diazepine-1-carboxamide] | > 10000 | + |  |  | 
